Source: US20240301090A1, “COMPOSITIONS AND METHODS FOR TREATING A MEDICAL CONDITION” (priority 2021, published 2024)

Legend:
[1] = system: T1, Boc-Arg-Val-Arg-Arg-MCA reporter peptide substrate
T1 sequence: RVRR

αT3-1 gonadotrope cells = assay: mCherry DNA delivery in mixed culture, FACS: αT3-1 gonadotrope cells; format: cell-based, murine; conditions: for delivery of DNA into the cells: GnRH-crosslinked peptides; for αT3-1 gonadotrope cells expressing mCherry: mixed 1:10 with MEFs, 1.5 hours incubation, FACS after 48 hours
Protocol: (§1) Following 48 hours, cell were sorted by FACS to determine the numbers of cells expressing each fluorescent protein in a quantitative manner. The mCherry expression was detected in 58% of the αT3-1 gonadotrope cells, and in 3% of the MEFs.
(§2) Transfection with delivery peptides—Mixed cell cultures, in which the gonadotropes comprise ˜10% of the cells, as in the pituitary gland, were transferred to media without FCS or antibiotics and pre-incubated for 1.5 hours prior to transfection. The DNA: peptide mix (ratio 1:5; for every 1 μg DNA [mCherry or KRAB-Sf1], 5 μg peptide was used) was incubated for 5 minutes and then added to the cells. Following 1.5 hours the media was removed and replaced with fresh complete media. Cells were collected 24-48 hours later for counting by FACS to determine specificity and efficacy of the delivery, or after 2 weeks for gene expression analysis by qPCR. Further optimization in the mixed cell cultures utilized GnRH-crosslinked Peptide2 mixed 1:10 with non-crosslinked Peptide 2 to attain maximal efficiency and targeting specificity.
(§3) To test whether the newly designed GnRH-carrier might deliver DNA specifically to GnRH receptor-expressing cells, it was first applied to αT3-1 gonadotrope cells and Egr1 mRNA levels measured as a readout for GnRHR binding. […] Following, cells were sorted and counted by FACS to determine the number of cells expressing the delivered DNA in an unbiased manner. After optimization, the number of gonadotrope cells that were transfected reached around 58%, while only 3% of MEF cells expressed the mCherry (FIG. 12B). Assuming 80% of the αT3-1 indeed express the GnRH receptor, the targeting was successful in 72.5% of the GnRH receptor-expressing cells.

GnRH receptor (GnRHR) = target: T2, GnRH receptor (GnRHR) (Mus musculus, UniProt Q01776); assay: Egr1 mRNA induction as readout of GnRHR binding in αT3-1 cells; format: cell-based, murine; parameters: endogenous in cells; host or cells: αT3-1 gonadotrope cell line; conditions: αT3-1 gonadotrope cells
T2 sequence (Q01776 1-327): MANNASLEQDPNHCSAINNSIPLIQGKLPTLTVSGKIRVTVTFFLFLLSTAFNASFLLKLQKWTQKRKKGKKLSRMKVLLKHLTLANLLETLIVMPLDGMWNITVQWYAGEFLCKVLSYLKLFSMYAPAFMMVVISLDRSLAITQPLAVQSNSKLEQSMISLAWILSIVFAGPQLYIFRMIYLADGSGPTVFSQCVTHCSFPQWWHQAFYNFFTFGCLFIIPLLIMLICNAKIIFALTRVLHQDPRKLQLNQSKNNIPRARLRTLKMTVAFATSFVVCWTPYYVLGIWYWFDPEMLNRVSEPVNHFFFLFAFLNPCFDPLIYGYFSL
Protocol: as §1
RT-PCR—Real-time quantitative PCR was performed following RNA extraction (Trizol, Invitrogen followed by Zymo RNA purification kit+DNase) and reverse transcriptase (qScript cDNA synthesis kit, Quanta) using polymerase (2×qPCRBIO Fast qPCR SyGreen Blue Mix, Hi-ROX, PCR Biosystems) and the primers shown in Table 2 hereinbelow. Values were calculated using DNA standard curves and normalized to levels of Rplp0.
as §3

LβT2 cells = assay: DNA delivery into LβT2 cells (qPCR of GFP transcript); format: cell-based; conditions: CPP packaged with DNA construct
Protocol: FIG. 8A is a schematic representation of a MDP containing protamine as a cell penetrating peptide (CPP), a NLS sequence and C-terminal cysteine cross-linked to GnRHLys6. […] Results are shown as mean±SEM, n=3. […] In FIG. 8E, LβT2 cells were treated with the MDP at two concentrations (200 ng DNA+300 ng MDP or 1 μg DNA+1.5 μg MDP), or 200 ng DNA was transfected using Polyjet reagent (positive control). Following 72 hours, RNA was extracted, purified and treated with DNAse, and qPCR performed using primers targeting the adaptor and GFP, and then by nested PCR targeting just the GFP. Results are shown as mean±SEM, n=3.
(§4) FIG. 9A is a schematic representation of the CPP (NF51) cross-linked to GnRH using this approach and then packaged with the DNA. In FIG. 9B, LβT2 or MEF cells were treated with the NF51-DNA alone, or after its crosslinking to GnRH Lys6. PCR was carried out as in FIG. 8E. Also shown are mRNA levels in samples that lacked the reverse transcriptase (RT).
The delivery delivery proteins—the minimal delivery protein (MDP) chimeric protein (protamine and NLS, SEQ ID NO: 89) was synthesized by GL Biochem. It was crosslinked to GnRH Lys6 analog (SEQ ID NO: 9, Sigma), via the Lys^6 of the GnRH and the C-terminal Cys of the above protein using sulfo-GMBS. The crosslinked protein was dialyzed against PBS. […]

MEF cells = assay: DNA delivery into MEF cells (qPCR of GFP transcript); format: cell-based; conditions: CPP packaged with DNA construct
Protocol: as §4
The delivery delivery proteins—the minimal delivery protein (MDP) chimeric protein (protamine and NLS, SEQ ID NO: 89) was synthesized by GL Biochem. It was crosslinked to GnRH Lys6 analog (SEQ ID NO: 9, Sigma), via the Lys^6 of the GnRH and the C-terminal Cys of the above protein using sulfo-GMBS. The crosslinked protein was dialyzed against PBS. NF51 ([stearyl-AGYLLG]-delta-[…], SEQ ID NO: 103 conjugated through Gly6 to the δ-NH2 group of ornithine 1 of SEQ ID NO: 100) was purchased commercially (Icosagen) and cross-linked to GnRH Lys6 using Traut reagent (Pierce) followed by sulfo-GMBS (Thermo Fisher). Peptide 1 comprises the same CPP sequence as NF51 with a terminal cysteine (stearyl-AGYLLG)-delta-[…]-NH2, SEQ ID NO: 103 conjugated through Gly6 to the δ-NH2 group of ornithine 1 of SEQ ID NO: 101) for direct cross-linking, and Peptide 2 contains also the PACE cleavage (stearyl-AGYLLG)-delta-[…]-NH2, SQ ID NO: 103 conjugated through Gly6 to the δ-NH2 group of ornithine 1 of SEQ ID NO: 102). […]

MEFs = assay: mCherry DNA delivery in mixed culture, FACS: MEFs; format: cell-based; conditions: mixed culture with αT3-1, 1.5 hours incubation, FACS after 48 hours
Protocol: as §1
as §2, with “Further optimization in the mixed cell cultures utilized GnRH-crosslinked Peptide2 mixed 1:10 with non-crosslinked Peptide 2 to attain maximal efficiency and targeting specificity.” left out
To test whether the newly designed GnRH-carrier might deliver DNA specifically to GnRH receptor-expressing cells, it was first applied to αT3-1 gonadotrope cells and Egr1 mRNA levels measured as a readout for GnRHR binding. […] Following, cells were sorted and counted by FACS to determine the number of cells expressing the delivered DNA in an unbiased manner. […]

[2] = target: T3, Boc-Arg-Val-Arg-Arg-MCA reporter peptide substrate
T3 chain: RVRR

PACE4 secreted by LβT2 gonadotrope cells (in conditioned medium)
fluorescence on cleavage of the substrate (380 nm ex/460 nm em) [1]: cutting the reporter and emitting fluorescence at a much higher level than seen in the incubation media of MEF cells

(stearyl-AGYLLG)-delta-OINLKALAALAKKILC-NH2 [Peptide 1]
delivery of DNA into the cells (αT3-1 gonadotrope cells): could deliver some DNA into the cells
Egr1 mRNA activation (GnRHR binding) (GnRH receptor (GnRHR)): also activated the receptor

[stearyl-AGYLLG]-delta-OINLKALAALAKKIL [NF51, reference compound]
transfection of LβT2 gonadotrope cells (LβT2 cells): highly efficient
transfection of MEF cells (MEF cells): highly efficient

(stearyl-AGYLLG)-delta-OINLKALAALAKKILRVRRC-NH2 [GnRH Lys6-Peptide 2]
delivery of DNA into the cells (αT3-1 gonadotrope cells): could deliver some DNA into the cells
successful targeting of GnRH receptor-expressing cells (αT3-1 gonadotrope cells; assuming 80% of the αT3-1 express the GnRH receptor): 72.5%
specificity of DNA delivery to gonadotropes (αT3-1 gonadotrope cells; compared with peptide without PACE4 cleavage site): much more specific to gonadotropes
αT3-1 gonadotrope cells expressing mCherry (αT3-1 gonadotrope cells): 58%
αT3-1 gonadotrope cells expressing mCherry (αT3-1 gonadotrope cells; listed as Peptide 2): around 58%
MEFs expressing mCherry (MEFs): 3%
Egr1 mRNA activation (GnRHR binding) (GnRH receptor (GnRHR)): activated Egr1 mRNA

B1: PACE4 secreted by PANC-1 pancreatic cells (in conditioned medium) (protein)
chain: QVRSDPQALYFNDPIWSNMWYLHCGDKNSRCRSEMNVQAAWKRGYTGKNVVVTILDDGIERNHPDLAPNYDSYASYDVNGNDYDPSPRYDASNENKHGTRCAGEVAASANNSYCIVGIAYNAKIGGIRMLDGDVTDVVEAKSLGIRPNYIDIYSASWGPDDDGKTVDGPGRLAKQAFEYGIKKGRQGLGSIFVWASGNGGREGDYCSCDGYTNSIYTISVSSATENGYKPWYLEECASTLATTYSSGAFYERKIVTTDLRQRCTDGHTGTSVSAPMVAGIIALALEANSQLTWRDVQHLLVKTSRPAHLKASDWKVNGAGHKVSHFYGFGLVDAEALVVEAKKWTAVPSQHMCVAASDKRPRSIPLVQVLRTTALTSACAEHSDQRVVYLEHVVVRTSISHPRRGDLQIYLVSPSGTKSQLLAKRLLDLSNEGFTNWEFMTVHCWGEKAEGQWTLEIQDLPSQVRNPEKQGKLKEWSLILYGTAEHPYHTFSAHQSRSRMLELSAPELEPPKAALSPSQVEVPEDEEDYTAQSTPGSANILQTSVCHPECGDKGCDGPNADQCLNCVHFSLGSVKTSRKCVSVCPLGYFGDTAARRCRRCHKGCETCSSRAATQCLSCRRGFYHHQEMNTCVTLCPAGFYADESQKNCLKCHPSCKKCVDEPEKCTVCKEGFSLARGSCIPDCEPGTYFDSELIRCGECHHTCGTCVGPGREECIHCAKNFHFHDWKCVPACGEGFYPEEMPGLPHKVCRRCDENCLSCAGSSRNCSRCKTGFTQLGTSCITNHTCSNADETFCEMVKSNRLCERKLFIQFCCRTCLLAG
fluorescence on cleavage of the substrate [2]: cutting the reporter and emitting fluorescence at a much higher levels than the HEK cells
